Laboratory results as given in ChEMBL document CHEMBL1146580, “Acinospesigenin-A, -B, and -C: three new triterpenoids from Phytolacca acinosa” (2003).

What follows are compounds tested on Rattus norvegicus (assay: Antiedemic activity against […]-induced paw edema in sc dosed Albino rat).
Format: functional

Row | Structure (SMILES) | ED50
1 | COC(=O)[C@@]1(C)CC[C@]2(C(=O)O)CC[C@]3(C)C(=C[C@@H](O)[C@@H]4[C@@]5(C)C[C@H](O)[C@H](O)[C@@](C)(C=O)[C@@H]5CC[C@]43C)[C@H]2C1 | 10 mg/kg
2 | COC(=O)[C@@]1(C)CC[C@]2(C(=O)O)CC[C@]3(C)C(=CC[C@@H]4[C@@]5(C)C[C@H](O)[C@H](O)[C@@](C)(C=O)[C@@H]5CC[C@]43C)[C@H]2C1 | 10 mg/kg
3 | C[C@]12CCC(=O)C=C1CC[C@@H]1[C@@H]2C(=O)C[C@@]2(C)[C@H]1CC[C@]2(O)C(=O)CO [CORTISONE] | 30 mg/kg
4 | C[C@]12C=CC(=O)C=C1CC[C@@H]1[C@@H]2[C@@H](O)C[C@@]2(C)[C@H]1CC[C@]2(O)C(=O)CO [PREDNISOLONE] | 60 mg/kg
